What all share (format): cell-based
The target in one experiment is T1, BTK (Homo sapiens, UniProt Q06187).
T1 construct: endogenous in cells; host or cells: Mino cells
Description: BTK degradation activity test in Mino cells. The conditions noted are these: 16 h incubation, Western blot or Elisa. Put shortly:
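DC50 derived by curve fitting of BTK degradation rates versus untreated control across compound concentrations. Mino cells were exposed for 16 h; BTK levels in lysates, normalised via BCA protein, measured by Western blot or ELISA.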

Another experiment concerns OCI-LY10 cells. Description: Inhibitory activity on OCI-LY10 cell proliferation (MTS). The conditions noted are these: Homo sapiens, 72 h. Here is the method: (§1) The anti-tumor efficacy of the compounds was tested by measuring their inhibitory effects on OCI-LY10 and Mino cell proliferation. OCI-LY10 and Mino cells were cultured in RPMI-1640 medium containing 10% fetal calf serum. OCI-LY10 and Mino cells were digested, inoculated in a 96-well plate at a cell concentration of 10000 cells/well, and incubated overnight at 37° C., 5% CO2. Compounds of different concentrations (1000 nM, 4-fold dilution, 8 points) were added to the 96-well plate and incubated for 72 h (LY10) or 168 h (Mino) at 37° C. and 5% CO2, and then 20 uL of MTS was added to each well. After incubation for 2 h, 25 μl of 10% SDS was added to each well to terminate the reaction. The absorbance at 490 nm and 650 nm were measured with a microplate reader. IC50 was calculated using GraphPad Prism 5.0.

The test system of a further experiment is Mino cells. Description: Inhibitory activity on Mino cell proliferation (MTS). The note with it: Homo sapiens, 168 h incubation. How it is done: as §1

In general, DC50 refers to the midpoint of the concentration-degradation curve. Higher therefore signals a less potent degrader. As a reminder, the IC50 is the concentration that inhibits the measured activity by half. The low end stands for greater potency in that assay, the high end for weaker potency in that assay.

T1 sequence (Q06187 whole entry): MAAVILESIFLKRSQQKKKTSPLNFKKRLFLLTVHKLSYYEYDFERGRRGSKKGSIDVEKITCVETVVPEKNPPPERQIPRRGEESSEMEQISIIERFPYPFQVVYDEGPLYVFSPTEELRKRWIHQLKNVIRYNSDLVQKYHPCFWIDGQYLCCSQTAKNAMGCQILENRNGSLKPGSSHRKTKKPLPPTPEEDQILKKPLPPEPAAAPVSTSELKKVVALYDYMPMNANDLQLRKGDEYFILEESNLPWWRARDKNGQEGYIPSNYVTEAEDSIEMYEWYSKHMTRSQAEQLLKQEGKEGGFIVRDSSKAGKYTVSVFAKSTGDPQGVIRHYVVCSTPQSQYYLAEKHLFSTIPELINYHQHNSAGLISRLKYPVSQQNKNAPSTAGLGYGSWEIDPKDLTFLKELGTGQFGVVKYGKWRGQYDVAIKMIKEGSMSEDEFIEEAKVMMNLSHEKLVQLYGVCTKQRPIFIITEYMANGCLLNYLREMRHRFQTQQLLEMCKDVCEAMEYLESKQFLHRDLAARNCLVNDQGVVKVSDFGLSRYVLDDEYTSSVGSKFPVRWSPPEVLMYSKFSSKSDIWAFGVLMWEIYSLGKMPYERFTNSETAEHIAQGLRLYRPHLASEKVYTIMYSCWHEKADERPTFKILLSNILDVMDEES

As for `CN1CCN([C@@H]2CCCN(c3nnc(C(N)=O)c(Nc4ccc(N5CCC(CN6CCN(c7cc8c(cc7F)C(=O)N(C7CCC(=O)NC7=O)C8=O)CC6)CC5)cc4)n3)C2)C1=O` (stereo partly drawn) [Compound 125, 5-((4-(4-((4-(2-(2,6-dioxopiperidin-3-yl)-6-fluoro-1,3-dioxoisoindolin-5-yl)piperazin-1-yl)methyl)piperidin-1-yl)phenyl)amino)-3-((R)-3-(3-methyl-2-oxoimidazolin-1-yl)piperidin-1-yl)-1,2,4-triazin-6-carboxamide], the DC50 at BTK is less than 1 nM. The molecule also displayed an IC50 in the experiment on OCI-LY10 cells of 1.83 nM.
For `CN1CCN([C@@H]2CCCN(c3nnc(C(N)=O)c(Nc4ccc(N5CCN(CC6CCN(c7ccc(N8CCC(=O)NC8=O)c(F)c7F)CC6)CC5)c(F)c4)n3)C2)C1=O` [Compound 185, (R)-5-((4-(4-((1-(4-(2,4-dioxotetrahydropyrimidin-1(2H)-yl)-2,3-difluorophenyl)piperidin-4-yl)methyl)piperazin-1-yl)-3-fluorophenyl)amino)-3-(3-(3-methyl-2-oxoimidazolidin-1-yl)piperidin-1-yl)-1,2,4-triazin-6-carboxamide], in that order: less than 1 nM and 1.36 nM.
At BTK, `CN1CCN([C@@H]2CCCN(c3nnc(C(N)=O)c(Nc4ccc(N5CCN(CC6CCN(c7ccc(N8CCC(=O)NC8=O)c(C(F)F)c7)CC6)CC5)c(F)c4)n3)C2)C1=O` [Compound 188, (R)-5-((4-(4-((1-(3-(difluoromethyl)-4-(2,4-dioxotetrahydropyrimidin-1(2H)-yl)phenyl)piperidin-4-yl)methyl)piperazin-1-yl)-3-fluorophenyl)amino)-3-(3-(3-methyl-2-oxoimidazolidin-1-yl)piperidin-1-yl)-1,2,4-triazin-6-carboxamide] returned a DC50 of less than 1 nM. In the experiment with Mino cells, this molecule gave an IC50 of 5.55 nM.
The molecule `CC(C)c1cc(N2CCC(CN3CCN(c4ccc(Nc5nc(N6CCC[C@@H](N7CCN(C)C7=O)C6)nnc5C(N)=O)cc4F)CC3)CC2)ccc1N1CCC(=O)NC1=O` [Compound 189, (R)-5-((4-(4-((1-(4-(2,4-dioxotetrahydropyrimidin-1(2H)-yl)-3-isopropylphenyl)piperidin-4-yl)methyl)piperazin-1-yl)-3-fluorophenyl)amino)-3-(3-(3-methyl-2-oxoimidazolidin-1-yl)piperidin-1-yl)-1,2,4-triazin-6-carboxamide] returned a DC50 at BTK of less than 1 nM. Further, in the experiment on Mino cells, the IC50 turned out to be 5.45 nM.
On to `CN1CCN([C@@H]2CCCN(c3nnc(C(N)=O)c(Nc4ccc(N5CCN(CC6CCN(c7ccc(N8CCC(=O)NC8=O)c8ocnc78)CC6)CC5)c(F)c4)n3)C2)C1=O` [Compound 191, (R)-5-((4-(4-((1-(7-(2,4-dioxotetrahydropyrimidin-1(2H)-yl)benzo[d]oxazol-4-yl)piperidin-4-yl)methyl)piperazin-1-yl)-3-fluorophenyl)amino)-3-(3-(3-methyl-2-oxoimidazolidin-1-yl)piperidin-1-yl)-1,2,4-triazin-6-carboxamide], for which, at BTK, the half-maximal degradation concentration (DC50) is less than 1 nM. The molecule further showed an IC50 in the experiment with Mino cells of 8.47 nM.
For `CN1CCN([C@@H]2CCCN(c3nnc(C(N)=O)c(Nc4ccc(N5CCN(CC6CCN(c7ccc(N8CCC(=O)NC8=O)c8[nH]cnc78)CC6)CC5)c(F)c4)n3)C2)C1=O` [Compound 192, (R)-5-((4-(4-((1-(7-(2,4-dioxotetrahydropyrimidin-1(2H)-yl)-1H-benzo[d]imidazol-4-yl)piperidin-4-yl)methyl)piperazin-1-yl)-3-fluorophenyl)amino)-3-(3-(3-methyl-2-oxoimidazolidin-1-yl)piperidin-1-yl)-1,2,4-triazin-6-carboxamide], in that order: less than 1 nM and 2.41 nM.
Molecule `Cc1cc(N2CCC(CN3CCN(c4ccc(Nc5nc(N6CCC[C@@H](N7CCN(C)C7=O)C6)nnc5C(N)=O)cc4F)CC3)CC2)ccc1NC1CCC(=O)NC1=O` (stereo partly drawn) [Compound 207, 5-((4-(4-((1-(4-((2,6-dioxopiperidin-3-yl)amino)-3-methylphenyl)piperidin-4-yl)methyl)piperazin-1-yl)-3-fluorophenyl)amino)-3-((R)-3-(3-methyl-2-oxoimidazolidin-1-yl)piperidin-1-yl)-1,2,4-triazin-6-carboxamide] showed a DC50 on BTK of less than 1 nM. In the experiment on OCI-LY10 cells, this molecule showed an IC50 of 0.23 nM.
For `CN1CCN([C@@H]2CCCN(c3nnc(C(N)=O)c(Nc4ccc(N5CCN(CC6CCN(c7ccc(NC8CCC(=O)NC8=O)c8c7OCO8)CC6)CC5)c(F)c4)n3)C2)C1=O` (stereo partly drawn) [Compound 209, 5-((4-(4-((1-(7-((2,6-dioxopiperidin-3-yl)amino)benzo[d][1,3]dioxacyclopent-4-yl)piperidin-4-yl)methyl)piperazin-1-yl)-3-fluorophenyl)amino)-3-((R)-3-(3-methyl-2-oxoimidazolidin-1-yl)piperidin-1-yl)-1,2,4-triazin-6-carboxamide], the DC50 at BTK is less than 1 nM. The molecule also returned an IC50 in the experiment with Mino cells of 3.42 nM.
For `CN1CCN([C@@H]2CCCN(c3nnc(C(N)=O)c(Nc4ccc(N5CCN(CC6CCN(c7ccc(NC8CCC(=O)NC8=O)c8ocnc78)CC6)CC5)c(F)c4)n3)C2)C1=O` (stereo partly drawn) [Compound 210, 5-((4-(4-((1-(7-((2,6-dioxopiperidin-3-yl)amino)benzo[d]oxazol-4-yl)piperidin-4-yl)methyl)piperazin-1-yl)-3-fluorophenyl)amino)-3-((R)3-(3-methyl-2-oxoimidazolidin-1-yl)piperidin-1-yl)-1,2,4-triazin-6-carboxamide], in that order: less than 1 nM and 2.33 nM.
`CN1CCN([C@@H]2CCCN(c3nnc(C(N)=O)c(Nc4ccc(N5CCN(CC6CCN(c7ccc8c(C9CCC(=O)NC9=O)nn(C)c8c7)CC6)CC5)c(F)c4)n3)C2)C1=O` (stereo partly drawn) [Compound 213, 5-((4-(4-((1-(3-(2,6-dioxopiperidin-3-yl)-1-methyl-1H-indazol-6-yl)piperidin-4-yl)methyl)piperazin-1-yl)-3-fluorophenyl)amino)-3-((R)-3-(3-methyl-2-oxoimidazolidin-1-yl)piperidin-1-yl)-1,2,4-triazin-6-carboxamide] gave a DC50 at BTK of less than 1 nM. The molecule also returned an IC50 with Mino cells of 7.64 nM.
The corresponding values for `CN1CCN([C@@H]2CCCN(c3nnc(C(N)=O)c(Nc4ccc(N5CCN(CC6CCN(c7ccc8c(c7)n(C)c(=O)n8C7CCC(=O)NC7=O)CC6)CC5)c(F)c4)n3)C2)C1=O` (stereo partly drawn) [Compound 219, 5-((4-(4-((1-(1-(2,6-dioxopiperidin-3-yl)-3-methyl-2-oxo-2,3-dihydro-H-benzo[d]imidazol-5-yl)piperidin-4-yl)methyl)piperazin-1-yl)-3-fluorophenyl)amino)-3-((R)-3-(3-methyl-2-oxoimidazolidin-1-yl)piperidin-1-yl)-1,2,4-triazin-6-carboxamide] are less than 1 nM and 2.74 nM.
Turning to `CN1CCN([C@@H]2CCCN(c3nnc(C(N)=O)c(Nc4ccc(N5CCN(CC6CCN(c7ccc8c9c(oc8c7)C(=O)N(C7CCC(=O)NC7=O)C9)CC6)CC5)c(F)c4)n3)C2)C1=O` (stereo partly drawn) [Compound 223, 5-((4-(4-((1-(2-(2,6-dioxopiperidin-3-yl)-3-oxo-2,3-dihydro-H-benzofuro[2,3-c]pyrrol-6-yl)piperidin-4-yl)methyl)piperazin-1-yl)-3-fluorophenyl)amino)-3-((R)-3-(3-methyl-2-oxoimidazolidin-1-yl)piperidin-1-yl)-1,2,4-triazin-6-carboxamide], the DC50 on BTK was less than 1 nM. The molecule also came in with an IC50 in the experiment on OCI-LY10 cells of 2.55 nM.
